In patent US20240300913A1, “FLAVONE DERIVATIVE AND USE THEREOF FOR IMPROVING PULMONARY FIBROSIS” (A-CHEMBIO CO., LTD, priority 2023, published 2024):

Legend:
A549 cells [1] = assay: MTT cytotoxicity evaluation in A549 cells; assay type: cell-based; details: for cell viability: compared to untreated control
Experimental: To confirm the effect of novel flavone derivative I on cell viability, A549 cells, derived from lung cancer, were used to examine cell viability with MTT [3-(4,5-dimethylthiazol-2-yl)-2,5-diphenyltetrazolium bromide]. After being suspended in a medium, A549 cells were dispensed into a 96-well plate and incubated for 24 hours. After 24 hours, 200 μL of a medium containing 0 to 20 μM BGC was added to each well of the plate and incubated for 24 or 48 hours. After incubation, MTT was diluted (0.5 mg/ml) in phosphate-buffered saline (PBS). Then, 20 μL of the diluted MTT was dispensed into each well, and incubation was performed in a CO2 incubator for 4 hours. After 4 hours, the MTT solution was removed, and 200 μL of dimethyl sulfoxide (DMSO) was dispensed into each well to dissolve the formazan precipitate for 5 minutes. Next, the absorbance was measured at 595 nm.
(§1) Cytotoxicity tests of novel flavone derivative II (Achem II) on A549 cells, HULEC-5a cells, and HLF cells were performed in the same manner as in Example 1 above, using the MTT assay. The results thereof are shown in FIGS. 17 to 19 as cell viability (%) after 24, 48, and 72 hours compared to that of the control group, the untreated sample group.
as §1, with “III” for “II”, “III)” for “II)”, “27” for “17”, “29” for “19”

A549 cells [2] = assay: Effect upon EGF treatment in A549 cells (western blot of protein levels); assay type: cell-based; details: 1 hour
Experimental: A549 cells, derived from lung cancer, were incubated at different cell numbers depending on the sample treatment time. 4.5×10^5 cells (30 minutes to 12 hours), 4.0×10^5 cells (24 hours), and 3.5×10^5 cells (48 hours) were suspended in the respective media, dispensed into a 60-mm plate, and incubated for 24 hours. After 24 hours, each plate was treated with EGF (2 ng/ml) alone or in combination with novel flavone derivative I at varying concentrations or a predetermined concentration. After a predetermined period (30 minutes to 48 hours) of incubation, the cells were lysed with RIPA lysis buffer ([50 mM Tris]-Cl (pH, 7.4), 1% NP-40, 150 mM NaCl, 1 mM EDTA, and 1 mM, phenylmethylsulfonyl fluoride (PMSF)) containing MG-132 (10 μM). Next, only the supernatant was collected by centrifugation (at 14,000 rpm for 10 minutes) at 4° C., and the proteins were separated by SDS-polyacrylamide gel electrophoresis (SDS-PAGE). […]
FIGS. 11 and 12 show the results thereof. […] Thus, the degree to which pulmonary fibrosis-related factors, whose expression levels were increased in A549 cells by EGF treatment, were inhibited by the treatment with novel flavone derivative I was evaluated.
The effect of novel flavone derivative II upon EGF treatment in A549 cells was evaluated in the same manner as in Example 1 above.

HULEC-5a cells = assay: Effect of bleomycin treatment on Hulec-5a cells (western blot of protein levels); assay type: cell-based, human; details: Hulec-5a cells treated with bleomycin, FIG. 14
Experimental: 1.2×10^6 Hulec-5a cells, derived from pulmonary vessels, were suspended in a medium, dispensed into a 100-mm plate, and incubated for 24 hours. After 24 hours, each plate was treated with BLM alone or in combination with novel flavone derivative I at varying concentrations or a predetermined concentration. After a predetermined period of incubation, the cells were lysed with RIPA lysis buffer ([50 mM Tris]-Cl (pH, 7.4), 1% NP-40, 150 mM NaCl, 1 mM EDTA, and 1 mM phenylmethylsulfonyl fluoride (PMSF)) containing MG-132 (10 μM). Next, only the supernatant was collected by centrifugation (at 14,000 rpm for 10 minutes) at 4° C., and the proteins were separated by SDS-polyacrylamide gel electrophoresis (SDS-PAGE). The separated proteins were transferred to a polyvinylidene difluoride membrane (PVDF membrane), reacted in 5% nonfat dry milk for 3 hours, and then reacted with primary antibodies at 4° C. for 12 hours. After 12 hours, the proteins further reacted with secondary antibodies corresponding to the respective primary antibodies. Then, the protein band was examined, according to the manufacturer's protocol, using an ECL kit.

A549 cells [3] = assay: Effect of bleomycin treatment on A549 cells (western blot of protein levels); assay type: cell-based; details: BLM and/or compound, 3, 24, and 48 hours
Experimental: A549 cells, derived from lung cancer, were incubated at different cell numbers depending on the sample treatment time. 4.5×10^5 cells (30 minutes to 12 hours), 4.0×10^5 cells (24 hours), and 3.5×10^5 cells (48 hours) were suspended in the respective media, dispensed into a 60-mm plate, and incubated for 24 hours. After 24 hours, each plate was treated with bleomycin (BLM) alone or in combination with novel flavone derivative I at a predetermined concentration. After a predetermined period of incubation, the cells were lysed with RIPA lysis buffer ([50 mM Tris]-Cl (pH, 7.4), 1% NP-40, 150 mM NaCl, 1 mM EDTA, and 1 mM phenylmethylsulfonyl fluoride (PMSF)) containing MG-132 (10 μM). Next, only the supernatant was collected by centrifugation (at 14,000 rpm for 10 minutes) at 4° C., and the proteins were separated by SDS-polyacrylamide gel electrophoresis (SDS-PAGE). The separated proteins were transferred to a polyvinylidene difluoride membrane (PVDF membrane), reacted in 5% nonfat dry milk for 3 hours, and then reacted with primary antibodies at 4° C. for 12 hours. After 12 hours, the proteins further reacted with secondary antibodies corresponding to the respective primary antibodies. Then, the protein band was examined, according to the manufacturer's protocol, using an ECL kit. […]

Compound | cell viability (A549 cells [1]; all treatment concentrations, incubated for 24 and 48 hours) [%] | cell viability (A549 cells [1]; concentrations of 3 μM or higher, incubated for 72 hours) [%] | level of NOX2, a fibrosis-related factor increased by EGF treatment (A549 cells [2]; 2 ng/mL EGF and compound, FIG. 24) | cytotoxicity (A549 cells [1]; treatment concentration of 5 μM, incubated for 24 hours, MTT) | cell viability (A549 cells [1]; treatment concentration of 5 μM, incubated for 48 hours) | levels of pulmonary fibrosis-related factors (fibronectin, α-SMA, HIF-1α, NOX2, and NOX4) (HULEC-5a cells) | levels of fibrosis-related factors (p-EGFR, EGFR, p-AKT, HIF-1α, and NOX2), increased by EGF treatment (A549 cells [2]; 2 ng/mL EGF and compound at 1, 3, and 5 or 2 μM, FIGS. 11 and 12) | levels of pulmonary fibrosis-related factors (fibronectin, α-SMA, HIF-1α, NOX1, NOX2, and NOX4), increased by BLM treatment (A549 cells [3])
COc1ccc(-c2c(-c3ccc(O)c(OC)c3)oc3cc(OC)c(OC)cc3c2=O)cc1 [novel flavone derivative II, 2-(4-hydroxy-3-methoxyphenyl)-6,7-dimethoxy-3-(4-methoxyphenyl)-4H-chromen-4-one] | ≥ 80 | ≤ 80 | decreased | – | – | – | – | –
COc1ccc(-c2c(-c3ccc(O)c(O)c3)oc3cc(OC)c(OC)cc3c2=O)cc1 [novel flavone derivative I, 2-(3,4-dihydroxyphenyl)-6,7-dimethoxy-3-(4-methoxyphenyl)-4H-chromen-4-one] | – | – | – | No cytotoxicity was observed | about 80% | decreased | decreased | decreased
